The values below are quoted from earlier work in patent US20240099995A1, “METHOD OF PREPARING A TOPICAL PHARMACEUTICAL COMPOSITION” (PHEBRA PTY LTD, priority 2021, published 2024).

Experiment in data set [1]: not given
The source holds these as a separate data set.

Molecules are shown by their SMILES. Like-named read-outs stand apart in the source and are kept apart here.

As for `CNCC(O)c1ccc(O)c(O)c1` (centres unmarked) [adrenaline], the concentration loss by setting is: (4° C. and above, after 2 days) 100%; (22° C., within 90 minutes) 100%. Moreover, the time stable entry (stored in a freezer, acidic and basic conditions) was “at least 28 days”.

Take `CCN(CC)CC(=O)Nc1c(C)cccc1C` [lignocaine]: the “duration of topical anesthesia” value in data set [1] (with adrenaline) was 120 to 360 min; in data set [1] (without adrenalin), 30 to 60 min.
